Patent US7709497B2, “Pyrazolo[3,4-b]pyridine compound, and its use as a PDE4 inhibitor” (Glaxo Group Limited, priority 2004, dated 2010)

Test system: Dinitrofluorobenzene (DNFB)-induced delayed type hypersensitivity (DTH) response in pigs
Assay: Pig model of atopic dermatitis: DNFB-induced DTH response, skin topical administration
Assay type: in vivo
Text: The pig DTH (delayed type hypersensitivity) model of contact hypersensitivity utilizes the Th2-mediated inflammatory response in pig skin to mimic the pathology of atopic dermatitis in humans. The model measures the potential anti-inflammatory effect of compounds, topically-applied to the skin, on the acute DTH (delayed type hypersensitivity) response in castrated male Yorkshire pigs.
In general in the assay, pigs (domestic Yorkshire pigs, 15-18 kg at time of sensitization, castrated males) are first sensitized by topical application of ca. 10% (w/v) dinitrofluorobenzene (DNFB) dissolved in DMSO:acetone:olive oil (ca. 1:5:3) (ca. 40 mg DNFB, 400 microlitre solution total) to the ears (outer) and groin (inner). The pigs are then challenged 12 days later with ca. 0.6% (w/v) DNFB applied to randomized sites on the shaved back of the pigs (ca. 90 micrograms/site; sites are identified and numbered by grid made with marking pen).
On the day of challenge, the treatments are performed at about 2 hours prior to and about 6 hours after challenge (for DMSO/acetone solutions/suspensions, to maximize exposure to drug), or at about 30 minutes after and about 6 hours after challenge (for topical ointments or creams, representing a more clinically relevant treatment protocol).
One day (about 24 hrs) after challenge, and optionally again at ca. 48 hrs post challenge, test sites are visually evaluated for intensity and extent of erythema by measuring the diameter of the reaction at its widest point and assigning scores of 0 to 4 for each of erythema intensity and erythema extent. Induration (a measure of swelling) is also scored 0 to 4. Scores for erythema intensity, erythema extent and induration are assigned according to the following criteria: Intensity of Erythema: 0=normal, 1=minimal, barely visible, 2=mild, 3=moderate, 4=severe. Extent of Erythema (not raised): 0=no edema, 1=macules of pin head size, 2=lentil sized macules, 3=confluent macules, 4=diffuse over entire site. Induration (palpable): 0=normal, 1=nodules of pin head size, 2=doughy lentil sized nodules, 3=confluent firm nodules, 4=diffuse hard lesion. The summed visual score at ca. 24 hours includes the individual scores for erythema intensity, erythema extent, and induration; so the maximal summed score for each site would be 12. High summed scores can generally indicate a high inflammatory response. Visual scores are subject to some inaccuracy/error.
Differences in the summed score between adjacent control (placebo) and treatment sites on the grids are calculated. This difference value is then used to determine the percent inhibition compared to the summed score for the control (placebo) sites. The more negative the difference value, the greater the calculated inhibition. Percent inhibition of (percent inhibition compared to) the mean summed score can be calculated.
About 24 hours after challenge, treatment sites can optionally also be visually evaluated for lesion area.
The anti-inflammatory effect of the compound of formula (I) (“free base” form), applied topically to the skin, on the acute DTH response in castrated male Yorkshire pigs is compared to that of another PDE4 inhibitor cipamfylline (BRL-61063) and the topical immunomodulator pimecrolimus.
In the above assay, the compound of formula (I) is topically administered: either (A) at ca. 2.5% (w/v) concentration in a solution of ca. 10% DMSO/90% acetone (ca. 50 microliters or ca. 1.5 mg/site) at about 2 hours prior to and about 6 hours after the DNFB challenge; or (B) at ca. 0.5% (w/w) concentration in an ointment containing propylene glycol (PG)*(ca. 25 mg of formulation/site) at about 30 minutes after and about 6 hours after the DNFB challenge. […]

## CCn1ncc2c(NC3CCN(C(N)=O)CC3)c(C(=O)NCc3ccc(C)c(C)c3)cnc21 [compound of formula (I), 4-{[1-(aminocarbonyl)-4-piperidinyl]amino}-N-[(3,4-dimethylphenyl)methyl]-1-ethyl-1H-pyrazolo[3,4-b]pyridine-5-carboxamide]
ca. 0.5% (w/w) in PG ointment, vs placebo PG ointment, ca. 24 h after challenge, p<0.05 by ANOVA
  inhibition of mean summed score (erythema intensity, erythema extent, induration): 13-14%
ca. 2.5% (w/v) in DMSO/acetone solution, vs vehicle alone, ca. 24 h after challenge
  reduction in mean summed score: about 21%
Skin administration in DMSO/acetone or PG ointment, subject to some inaccuracy/error
  lesion area: decrease the lesion area
